Measurements taken from PMC8907375, “Arylated analogues of cypronazole: fungicidal effect and activity on human fibroblasts. Docking analysis and molecular dynamics simulations” (Natural Products and Bioprospecting, 2022).
≈ marks a conversion by molar mass, not a printed value. Read-outs that look alike come from different tables or passages of the source.

Tests used:
[1] = test system: B. cinerea (isolated from grapes); experiment: In vitro antifungal activity, broth microdilution (MIC100); assay type: cell-based, Botrytis cinerea; settings: for Fungicidal activity MIC100, BC / MIC100 (complete growth inhibition): 22 °C, total growth inhibition
Protocol: (§1) Fungal growth was assessed at six concentrations (3.1–100 μg/mL), using enriched Czapek broth in the presence of triazole 1-8 (Fig. 2). Each treatment was carried out in triplicate. The Minimum Inhibitory Concentration (MIC100) was determined and was defined as the minimum concentration required to inhibit the complete fungal growth inhibition under the conditions of the assay. Triadimefon (TDM) and cyproconazole (CPZ) were used as positive control. In order to evaluate the efficacy of the new compounds to control fungi affecting vineyards, imperfect fungi isolated from infected grapes from the province of San Juan in Argentina were employed. Significant differences were determined by t-Student hypothesis test p, at 95% confidence. In general, moderate to good activity was observed compared to the reference compounds as well as some selectivity against microorganisms.
(§2) The imperfect fungi used for the assays included Botrytis cinerea isolated from grapevine samples, Aspergillus fumigatus (ATTC 26934), A. niger (ATCC 9029), A. ustus (PN-S4), A. japonicus (M15C), A. terreus (M16C) and Fusarium oxysporum (M15-Pa) isolated from soil samples from the province of San Juan, Argentina. The microorganisms were grown on Czapek-yeast extract agar (CYA) prepared with yeast extract, K2HPO4, saccharose, agar, distilled water and enriched with a solution of mineral salts (NaNO3, KCl, MgSO4.7H2O and FeSO4.7 H2O). Inocula were adjusted to 1–5 × 10^4 colony forming units (CFU/ mL).
(§3) The minimum inhibitory concentration (MIC) of each compound was evaluated using broth microdilution techniques in 96-well microtiter plates according to the guidelines of the National Committee for Clinical Laboratory Standards for filamentous fungi M 38 A. The starting inoculum was 1–5 × 10^4 CFU/mL in accordance with the Clinical and Laboratory Standards Institute (CLSI, formerly the National Committee for Clinical Laboratory Standards [NCCLS]) (M27-A3 document for yeasts, and M38-A2 document for filamentous fungi).
(§4) Microtiter plates were incubated at 30 °C for Aspergillus and Fusarium, and 22 °C for B. cinerea in a moist and dark chamber. MIC values were recorded after 48 h for Aspergillus and Fusarium spp., and after 72 h for B. cinerea, according to the fungal growth control. TDM and CPZ were used as positive controls (12.5–50 μg/mL). Stock solutions were two-fold diluted with RPMI from 1000 to 0.98 μg/mL (final volume equal to 100 μL), and a final DMSO concentration ≤ 1%. An inoculum suspension (100 μL) was added to each well with the exception of the sterility control. Endpoints were defined as the lowest compound concentration resulting in total growth inhibition (MIC100) compared to the growth in control wells. MICs values ≤ 50 μg/mL were considered of interest. The assay was carried out in triplicate.

A. japonicus (M15C) = experiment: as above; assay type: cell-based, Aspergillus japonicus; settings: 48 h; for MIC: read-out: Fungicidal activity MIC100, AJ; for Fungicidal activity MIC100, AJ: A. japonicus, 30 °C, total growth inhibition
Protocol: as §1, §2, §3, §4

[2] = Cytotoxicity, neutral red uptake assay; assay type: cell-based, human; settings: human
Protocol: (§5) The cytotoxic effect of the compounds, expressed as cell viability, was assessed on a permanent fibroblast cell line derived from human lung (MRC-5) (ATCC CCL-171). MRC-5 fibroblasts were grown as monolayers in minimum essential Eagle medium (MEM) with Earle’s salts, 2 mM l-glutamine and 2.2 g/L sodium bicarbonate, supplemented with 10% heat inactivated fetal bovine serum (FBS), 100 IU/mL penicillin and 100 µg/mL streptomycin in a humidified incubator with 5% CO2 in the air at 37 °C. Cell passage was maintained between 10 and 16. The medium was changed every 2 days.
(§6) Confluent cultures of MRC-5 fibroblasts were treated with medium containing the compounds at concentrations ranging from 0 to 1000 µM. For comparison purposes, the commercial antifungals CPZ and TDM were used as references, the products were first dissolved in DMSO and then in MEM, supplemented with 2% FBS. The final content of DMSO in the test medium and controls was 1%. Cells were exposed for 24 h to the test medium with or without the compound (control). Each concentration was tested in quadruplicate together with the control, and repeated three times in separate experiments. At the end of the incubation, the neutral red uptake (NRU) assay was carried out. To calculate the IC50 values (concentration that produces a 50% inhibitory effect on the evaluated parameter), the results were transformed to percentage of controls and the IC50 values were graphically obtained from the dose–response curves.

A. niger (ATCC 9029) = experiment: In vitro antifungal activity, broth microdilution (MIC100); assay type: cell-based, Aspergillus niger; settings: 48 h, total growth inhibition; for MIC100 (complete growth inhibition): Aspergillus niger, ATCC9029, 30 °C, read-out: Fungicidal activity MIC100, AN; for Fungicidal activity MIC100, AN: 30 °C
Protocol: as §1, §2, §3, §4

[3] = test system: Aspergillus fumigatus (ATTC 26934); experiment: as above; assay type: cell-based; settings: A. fumigatus, 30 °C, 48 h, total growth inhibition; for Minimum inhibitory concentration (MIC100): Aspergillus fumigatus, read-out: Fungicidal activity MIC100, AF
Protocol: as §1, §2, §3, §4

[4] = test system: Fusarium oxysporum (M15-Pa); experiment: as above; assay type: cell-based; settings: 30 °C, 48 h, total growth inhibition; for MIC100 (minimum concentration for complete growth inhibition): Fusarium oxysporum, F. oxysporum, read-out: Fungicidal activity MIC100, F
Protocol: as §1, §2, §3, §4

A. terreus (M16C) = experiment: as above; assay type: cell-based, Aspergillus terreus; settings: 48 h; for MIC100 (complete growth inhibition): Aspergillus terreus, read-out: Fungicidal activity MIC100, AT, A. terreus, 30 °C, total growth inhibition
Protocol: as §1, §2, §3, §4

A. ustus (PN-S4) = experiment: as above; assay type: cell-based, Aspergillus ustus; settings: 30 °C, 48 h, total growth inhibition; for MIC100 (complete growth inhibition): Aspergillus ustus, read-out: Fungicidal activity MIC100, AU
Protocol: as §1, §2, §3, §4

[5] = test system: human lung fibroblasts MRC-5; experiment: Cytotoxicity, neutral red uptake assay; assay type: cell-based
Protocol: as §5, §6

[6] = Botrytis cinerea, B. cinerea, 72 h, read-out: Fungicidal activity MIC100, BC
[7] = Botrytis cinerea, B. cinerea, molar conversion of the µg/mL value, read-out: MIC100 against B. cinerea expressed

SMILES	Fungicidal activity MIC100, BC ([1]; B. cinerea, 72 h)	MFC ([1]; Botrytis cinerea, 72 h, read-out: Fungicidal activity MIC100, BC)	MIC ([1]; Botrytis cinerea, read-out: MIC100 against B. cinerea expressed in µM)	MIC (A. japonicus (M15C))	IC50 at 24 h [2]	MIC100 (complete growth inhibition) (A. niger (ATCC 9029))	Minimum inhibitory concentration (MIC100) [3]	MIC100 (minimum concentration for complete growth inhibition) [4]	MIC100 (complete growth inhibition) (A. terreus (M16C))	MIC100 (complete growth inhibition) (A. ustus (PN-S4))	MIC100 (complete growth inhibition) [1, 6]	MIC [1, 7]	Fungicidal activity MIC100, AJ (A. japonicus (M15C))	Fungicidal activity MIC100, AN (A. niger (ATCC 9029))	Fungicidal activity MIC100, F [4]	Fungicidal activity MIC100, AU (A. ustus (PN-S4))	IC50 [5]	Fungicidal activity MIC100, AF [3]	Fungicidal activity MIC100, AT (A. terreus (M16C); A. terreus, 30 °C, total growth inhibition)	IC50 at 24 h ([2]; MRC-5 fibroblasts, 24 h exposure, neutral red uptake, ± SD, read-out: Cytotoxicity IC50)
CC(C)(C)C(=O)C(Oc1ccc(-c2ccccc2)cc1)n1cncn1 (centres unmarked) [Compound 1, 1-(Biphenyl-4-yloxy)-3,3-dimethyl-1-(1H-1,2,4-triazol-1-yl)butan-2-one]	10 ± 0.7 µg/mL	10 µg/mL (≈ 29.8 µM)	29.8 µM (≈ 10 µg/mL)	≥ 100 µg/mL	389 ± 23.5 µM	50 ± 1.7 µg/mL (≈ 149 µM)	80 ± 2.5 µg/mL (≈ 239 µM)	≥ 100 µg/mL	≥ 100 µg/mL	50 ± 1.2 µg/mL (≈ 149 µM)										
CC(C)(C)C(=O)C(Oc1ccc(-c2ccc(F)cc2)cc1)n1cncn1 (centres unmarked) [Compound 2]				≥ 100 µg/mL	90 ± 4.3 µM	≥ 100 µg/mL	≥ 100 µg/mL	≥ 100 µg/mL	≥ 100 µg/mL	≥ 100 µg/mL	≥ 100 µg/mL									
CC(C1CC1)C(O)(Cn1cncn1)c1ccc(-c2ccccc2)cc1 (centres unmarked) [Compound 3, 2-(Biphenyl-4-yl)-3-cyclopropyl-1-(1H-1,2,4-triazol-1-yl)butan-2-ol]	25 ± 1.4 µg/mL			12.5 µg/mL (≈ 37.5 µM)	118 ± 9.4 µM	3.12 µg/mL (≈ 9.36 µM)	≥ 100 µg/mL	5 µg/mL	≥ 100 µg/mL	6.25 µg/mL (≈ 18.7 µM)	25 µg/mL (≈ 75 µM)	75 µM (≈ 25 µg/mL)	12.5 ± 0.8 µg/mL	3.12 ± 0.3 µg/mL	5 ± 0.4 µg/mL	6.25 ± 0.3 µg/mL				
COc1ccc(-c2ccc(C(O)(Cn3cncn3)C(C)C3CC3)cc2)cc1 (centres unmarked) [Compound 5, 3-Cyclopropyl-2-(4'-methoxy-[1,1'-biphenyl]-4-yl)-1-(1H-1,2,4-triazol-1-yl)butan-2-ol]				≥ 100 µg/mL	732 ± 29.3 µM	6.25 µg/mL (≈ 17.2 µM)	≥ 100 µg/mL	≥ 100 µg/mL	≥ 100 µg/mL	≥ 100 µg/mL	≥ 100 µg/mL			6.25 ± 0.4 µg/mL						
CC(C1CC1)C(O)(Cn1cncn1)c1ccc(-c2ccc([N+](=O)[O-])cc2)cc1 (centres unmarked) [Compound 6, 3-Cyclopropyl-2-(4'-nitro-[1,1'-biphenyl]-4-yl)-1-(1H-1,2,4-triazol-1-yl)butan-2-ol]				≥ 100 µg/mL		≥ 100 µg/mL	≥ 100 µg/mL	≥ 100 µg/mL	≥ 100 µg/mL	≥ 100 µg/mL	≥ 100 µg/mL									
CC(C1CC1)C(O)(Cn1cncn1)c1ccc(-c2ccc3ccccc3c2)cc1 (centres unmarked) [Compound 7]				≥ 100 µg/mL	49.1 ± 3.4 µM	≥ 100 µg/mL	≥ 100 µg/mL	≥ 100 µg/mL	≥ 100 µg/mL	6.25 µg/mL (≈ 16.3 µM)	≥ 100 µg/mL					6.25 ± 0.3 µg/mL				
c1nc[nH]n1 [Compound 8, 1H-1,2,4-Triazole]													≥ 100 µg/mL	≥ 100 µg/mL	≥ 100 µg/mL	≥ 100 µg/mL	> 1 mM	≥ 100 µg/mL	≥ 100 µg/mL	
CC(C)(C)C(=O)C(Oc1ccc(Cl)cc1)n1cncn1 (centres unmarked) [TDM, 1-(4-chlorofenoxy)-3,3-dimethyl-1-(1H-1,2,4-triazol-1-yl)butan-2-one, reference compound]	80 ± 2.2 µg/mL			≥ 100 µg/mL		≥ 100 µg/mL	80 µg/mL (≈ 272 µM)	≥ 100 µg/mL	> 100 µg/mL	80 ± 2.6 µg/mL (≈ 272 µM)	80 µg/mL (≈ 272 µM)	274 µM (≈ 80.5 µg/mL)						80 ± 2.4 µg/mL		248 ± 12.4 µM
C[C@@H](c1ncncc1F)[C@](O)(Cn1cncn1)c1ccc(F)cc1F [VOR, voriconazole, reference compound]				< 0.75 µg/mL		1.25 ± 0.4 µg/mL (≈ 3.58 µM)	< 0.75 µg/mL	< 0.75 µg/mL	6.25 ± 0.8 µg/mL (≈ 17.9 µM)	1.25 µg/mL (≈ 3.58 µM)	< 0.75 µg/mL					1.25 ± 0.5 µg/mL				
